{"source": "paper PMC9254247", "about": "“Dual-sensitive antibacterial peptide nanoparticles prevent dental caries” (Theranostics, 2022)", "tested_on": "fresh mice erythrocytes", "type": "cell-based, mouse", "settings": "PBS pH 7.4; 30 min; 37 °C", "source_text": "Peptide and different pH of culture medium prepared. The pH of BHI medium was adjusted by HCl and NaOH. All peptides, including lycosin- I, pHly-1, s-pHly-1 were synthesized on a Rink amide-AM resin using the SPPS\n(9- fluorenyl-methoxycarbonyl solid-phase peptide synthesis) method as reported previously1. Then peptides were cleaved from the resin using TFA/1,2- ethanedithiol/thioanisole/anisole (90/5/3/2 (v/v)), precipitated in cold diethyl ether and the collected precipitate was dried by air -drying . The prepared peptides were purified by reverse phase- HPLC (RP-HPLC) and their molecular weights were determined by MALDI-TOF MS.\nHemolytic assay. Approximately 4 % (in volume) of the mouse erythrocyte s were prepared by diluting fresh erythrocytes to 25-fold dilution with PBS buffer (pH 7.4).\nThe stock peptide solution ([…]) diluted by PBS solution to reach various concentrations (200 μL) was placed in a 1.5 mL sterile microfuge tube, followed by the addition of 200 μ L o f erythrocyte suspension. The mixture was incubated at 37 °C for 30 min. Then, the mixture was centrifuged at 3,500 rpm for 5 min to collect the supernatant. Aliquots (100 μL) of the supernatant were removed to 96-well plates, and the absorbance was detected at 450 nm using a microplate reader (Multiskan Spectrum, BioTek Inc., USA). Untreated erythrocyte suspension in an equal volume of PBS solution and 0.1% Triton X-100 were used as the negative control and positive […]\nIsolation and culture of clinical S.mutans strains. Ethical approval of the study and the written consent/permission forms were obtained from Institutional Review Board (IRB) at Hunan Normal University prior to the study. For each child, written permission form was reviewed and signed by their legal guardians. Plaque -biofilm samples were collected from patients, including 16 Middle-aged and young patients and 4 children (age between 48 and 72 months) diagnosed with severe early childhood caries (S-ECC) in Changsha Stomatological Hospital. […]", "note": "No end group written: not given here."}
{"substance": "LHQHLHQHAIFHAIIHMAHFWIK-NH2 [s-pHly-1 NPs]", "values": [{"measurement": "HC50", "result": 423.0, "unit": "µM"}]}
